Experimental data reported in patent US6294526A, “Use of flavone derivatives for induction of β-lactam-sensitivity of MRSA” (priority 1998, dated 2001).
Converted amounts (≈) assume the structure as drawn. Like-named read-outs stand apart in the source and are kept apart here.

How the values were obtained:
[1] = test system: MSSA; experiment: antibacterial activity (MIC) by agar plate dilution method, MSSA strains; assay type: cell-based, Methicillin-sensitive Staphylooccus aureus; conditions: Staphylococcus aureus, 20 h, MSSA (7 strains); for MIC50: read-out: MIC50
Procedure: (§1) The screening of the present invention may be carried out according to the agar plate dilution method designated by the Japan Society of Chemotherapy (Chemotherapy 29(1), 76-79 (1981)). Mueller-Hinton agar base semi-synthetic medium may be used for a plate culture medium for a sensitivity test together with an inoculating bacteria solution which may be prepared by culturing bacteria to be tested at 37° C. for 20 hours diluted with 8.5% by isotonic sodium chloride solution to 10^6 CFU/ml. Diluted β-lactam solutions are prepared by two times serial dilution. 1 ml of the diluted β-lactam solution and 1 ml of a predetermined concentration of a sample to be tested are added to 8 ml of the plate culture medium for a sensitivity test. To the resultant plate culture medium for sensitivity test, the bacteria are inoculated using a microplanter (SAKUMASEISAKUSYO Co.), cultured for 20 hours at 37° C. followed by assessing for a minimum inhibition concentration (MIC).
(§2) (A) Antibacterial activities of ether extract from Scutellaria barbata, SB-1 (isolated from Scutellaria barbata), apigenin (authentic sample) and luteolin (authentic sample) were shown in Table 1.
(§3) Flavones were dissolved in methanol and the others were dissolved in 0.1 N NaOH. A method for determination of antibacterial activity is, as described above, an agar plate dilution method designated by the Japan Society of Chemotherapy (Chemotherapy 29(1), 76-79 (1981)) to determine MIC value. MIC80 is a concentration at which a strain is prohibited to proliferate by 80% and MIC50 is a concentration at which a strain is prohibited to proliferate by 50%.

[2] = test system: MRSA; experiment: antibacterial activity (MIC) by agar plate dilution method, MRSA strains; assay type: cell-based, methicillin-resistant Staphylococcus aureus; conditions: Staphylococcus aureus, 20 h
Procedure: as §1, §2, §3

[3] = test system: MRSA and MSSA; experiment: antibacterial activity (MIC) by agar plate dilution method, MRSA and MSSA strains together; assay type: cell-based, Staphylococcus aureus; conditions: for antibacterial activity (in words): Table 2; for MIC: Staphylococcus aureus, 20 h, read-out: MIC values (text summary of Table 2)
Procedure: as §1, with “(MIC). […]” for “(MIC).”
Antibacterial activity is determined for flavones including flavone, flavonol, flavanone, isoflavone, catechin and calchone, as follows:
as §3

[4] = MRSA (20 strains), read-out: MIC50

MIC50 [1]	MIC ([1]; MSSA, range over strains, read-out: MIC)	MIC50 [2, 4]	MIC ([3]; MRSA and MSSA, "in each case")	SMILES	antibacterial activity (in words) ([3]; MRSA and MSSA)	antibacterial activity (in words) ([3]; MRSA and MSSA, listed as phioretin)	MIC50 ([2]; MRSA)	MIC [3]
125 µg/mL (≈ 456 µM)	125 to 250 µg/mL (≈ 456 to 912 µM)	250 µg/mL (≈ 912 µM)	250 µg/mL (≈ 912 µM)	O=C(CCc1ccc(O)cc1)c1c(O)cc(O)cc1O [Phloretin, phloretin]	showed activity	showed antibacterial activity	–	–
> 250 µg/mL	–	125 µg/mL (≈ 437 µM)	250 µg/mL (≈ 873 µM)	COc1cc(O)c2c(c1)OC(c1ccc(O)cc1)CC2=O (centres unmarked) [Sakranetin, sakranetin]	showed antibacterial activity	–	–	–

SMILES	MIC50 [1]	MIC ([1]; MSSA, range over strains, read-out: MIC)	MIC50 [2, 4]	MIC ([3]; MRSA and MSSA, "in each case")	antibacterial activity (in words) ([3]; MRSA and MSSA)	antibacterial activity (in words) ([3]; MRSA and MSSA, listed as phioretin)	MIC50 ([2]; MRSA)	MIC [3]
O=c1c(O)c(-c2ccc(O)c(O)c2)oc2cc(O)cc(O)c12 [Quercetin, quercetin]	250 µg/mL (≈ 827 µM)	–	–	–	showed antibacterial activity	–	250 µg/mL (≈ 827 µM)	250 µg/mL (≈ 827 µM)
